Results from ChEMBL document CHEMBL3885861, “Open TG-GATES”.

Species: Rattus norvegicus
Test: Open TG-GATES - Regimen: Daily Repeat
Type: toxicity, organism-based, Sprague-Dawley
Design: regimen Daily Repeat, gender Male, age 6 weeks
Conditions: in vivo, po, 60 mg/kg, route gavage, dose level Low; for APTT / Bas / Eos / Fbg / Hb / Ht / Lym / MCH / MCHC / MCV / Mono / Neu / PT / Plat / RBC / Ret / WBC: tissue Blood; for KIDNEY_L / KIDNEY_R / KIDNEY_TOTAL: tissue Kidney; for LIVER: tissue Liver; for A/G / ALP / ALT / AST / BUN / CRE / Ca / Cl / DBIL / GLC / IP / K / LDH / Na / PL / RALB / TBIL / TC / TG / TP / gamma-GTP: tissue Plasma

## C[C@](N)(Cc1ccc(O)c(O)c1)C(=O)O [METHYLDOPA]
72 h, time 3 day
  TERMINAL_BW: 205.8 g
  APTT: 17.3 s
  Bas: 0%
  Eos: 1%
  Fbg: 249 mg/dL
  Hb: 13.5 g/dL
  Ht: 39.1%
  Lym: 77.8%
  MCH: 21.6 pg
  MCHC: 34.4%
  MCV: 62.9 fL
  Mono: 2.8%
  Neu: 17.8%
  PT: 12.6 s
  Plat: 102.6 x10_4/uL
  RBC: 623.2 x10_4/ul
  Ret: 7.7%
  WBC: 71 x10_2/uL
  KIDNEY_L: 0.9 g
  KIDNEY_R: 0.9 g
  KIDNEY_TOTAL: 1.8 g
  LIVER: 8.9 g
  A/G: 0.9
  ALP: 1905.6 IU/L
  ALT: 60.6 IU/L
  AST: 79.2 IU/L
  BUN: 13.6 mg/dL
  CRE: 0.2 mg/dL
  Ca: 11.1 mg/dL
  Cl: 106.8 meq/L
  DBIL: 0.01 mg/dL
  GLC: 172.6 mg/dL
  IP: 7.4 mg/dL
  K: 4 meq/L
  LDH: 59.2 IU/L
  Na: 144 meq/L
  PL: 130 mg/dL
  RALB: 2.6 g/dL
  TBIL: 0.064 mg/dL
  TC: 76.8 mg/dL
  TG: 51.8 mg/dL
  TP: 5.4 g/dL
  gamma-GTP: 1 IU/L
[…], time 7 day
  TERMINAL_BW: 237.3 g
  APTT: 16.2 s
  Bas: 0%
  Eos: 1%
  Fbg: 269.2 mg/dL
  Hb: 13.7 g/dL
  Ht: 39.9%
  Lym: 77.8%
  MCH: 21.8 pg
  MCHC: 34.3%
  MCV: 63.4 fL
  Mono: 3.2%
  Neu: 17.6%
  PT: 12.1 s
  Plat: 124.4 x10_4/uL
  RBC: 629 x10_4/ul
  Ret: 5.2%
  WBC: 68.8 x10_2/uL
  KIDNEY_L: 1 g
  KIDNEY_R: 1 g
  KIDNEY_TOTAL: 2 g
  LIVER: 10.4 g
  A/G: 0.9
  ALP: 1395.8 IU/L
  ALT: 43.4 IU/L
  AST: 69.4 IU/L
  BUN: 13.4 mg/dL
  CRE: 0.2 mg/dL
  Ca: 11 mg/dL
  Cl: 106.8 meq/L
  DBIL: 0.008 mg/dL
  GLC: 184 mg/dL
  IP: 7.2 mg/dL
  K: 4.6 meq/L
  LDH: 65.6 IU/L
  Na: 145 meq/L
  PL: 138.8 mg/dL
  RALB: 2.7 g/dL
  TBIL: 0.066 mg/dL
  TC: 87.4 mg/dL
  TG: 51.2 mg/dL
  TP: 5.9 g/dL
  gamma-GTP: 1 IU/L
[…], time 14 day
  TERMINAL_BW: 281.9 g
  APTT: 16.9 s
  Bas: 0%
  Eos: 1%
  Fbg: 302.6 mg/dL
  Hb: 13.8 g/dL
  Ht: 39.6%
  Lym: 80.6%
  MCH: 20.5 pg
  MCHC: 34.9%
  MCV: 59 fL
  Mono: 2.6%
  Neu: 15.4%
  PT: 14 s
  Plat: 109.7 x10_4/uL
  RBC: 672.8 x10_4/ul
  Ret: 4.4%
  WBC: 64.6 x10_2/uL
  KIDNEY_L: 1.1 g
  KIDNEY_R: 1.1 g
  KIDNEY_TOTAL: 2.2 g
  LIVER: 12.2 g
  A/G: 0.9
  ALP: 1372.2 IU/L
  ALT: 40.6 IU/L
  AST: 61.6 IU/L
  BUN: 13.6 mg/dL
  CRE: 0.2 mg/dL
  Ca: 11.3 mg/dL
  Cl: 106.2 meq/L
  DBIL: 0.01 mg/dL
  GLC: 176.8 mg/dL
  IP: 6.6 mg/dL
  K: 4.3 meq/L
  LDH: 53 IU/L
  Na: 142 meq/L
  PL: 155.8 mg/dL
  RALB: 2.8 g/dL
  TBIL: 0.058 mg/dL
  TC: 89 mg/dL
  TG: 85.2 mg/dL
  TP: 5.9 g/dL
  gamma-GTP: 1 IU/L
[…], time 28 day
  TERMINAL_BW: 389.2 g
  APTT: 18.8 s
  Bas: 0%
  Eos: 1.2%
  Fbg: 289 mg/dL
  Hb: 15 g/dL
  Ht: 42.9%
  Lym: 81.2%
  MCH: 19.7 pg
  MCHC: 35%
  MCV: 56.4 fL
  Mono: 2.2%
  Neu: 15%
  PT: 14 s
  Plat: 108.7 x10_4/uL
  RBC: 760.2 x10_4/ul
  Ret: 2.5%
  WBC: 77.4 x10_2/uL
  KIDNEY_L: 1.3 g
  KIDNEY_R: 1.3 g
  KIDNEY_TOTAL: 2.6 g
  LIVER: 15.2 g
  A/G: 0.8
  ALP: 1102.4 IU/L
  ALT: 49.8 IU/L
  AST: 65.6 IU/L
  BUN: 16 mg/dL
  CRE: 0.2 mg/dL
  Ca: 11.1 mg/dL
  Cl: 106.6 meq/L
  DBIL: 0.018 mg/dL
  GLC: 180.2 mg/dL
  IP: 5.8 mg/dL
  K: 4.2 meq/L
  LDH: 47.6 IU/L
  Na: 143.6 meq/L
  PL: 147 mg/dL
  RALB: 2.7 g/dL
  TBIL: 0.058 mg/dL
  TC: 77 mg/dL
  TG: 101.6 mg/dL
  TP: 6.1 g/dL
  gamma-GTP: 1 IU/L
